One experiment has as its target Bcl-2 protein (Homo sapiens (Human), UniProt P10415). Briefly: Inhibition of Bcl-2 by the fluorescence polarisation technique. The class given is binding. The settings on record: fluorescence polarisation test; concentration that inhibits fluorescence polarisation by 50%; read-out: IC50 (nM) Bcl-2 FP. On the procedure:
The fluorescence polarisation tests were carried out on microplates (384 wells). […] After incubation for 2 hours, the fluorescence polarisation is measured.
(In general: Fluorescence polarisation rises when a labelled molecule tumbles more slowly, as on binding a larger partner.)

For experiment [1], the system named is RS4;11 leukaemia tumour line. Briefly: In vitro cytotoxicity (Microculture Tetrazolium Assay, 48 hours). It is filed as cell-based. Conditions: Homo sapiens, RS4;11 cells, 48 hours exposure, MTT, concentration that inhibits cell viability by 50%, read-out: IC50 (nM) MTT RS4. On the procedure:
The cytotoxicity studies were carried out on the RS4;11 leukaemia tumour line.
The cells are distributed onto microplates and exposed to the test compounds for 48 hours.

Structures can show the parent of a compound that is named as a salt.

Bcl-2 protein, sequence (P10415 whole entry): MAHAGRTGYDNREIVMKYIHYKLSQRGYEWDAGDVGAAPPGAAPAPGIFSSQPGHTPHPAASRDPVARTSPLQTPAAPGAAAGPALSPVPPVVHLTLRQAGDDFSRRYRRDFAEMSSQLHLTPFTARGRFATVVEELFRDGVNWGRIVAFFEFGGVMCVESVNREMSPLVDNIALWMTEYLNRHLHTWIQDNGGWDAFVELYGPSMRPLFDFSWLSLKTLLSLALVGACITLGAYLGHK

The term IC50 denotes the concentration at which inhibition is half-maximal. As for `Cn1ccc2cc(N(C(=O)c3cc(-c4cc5c(cc4C(=O)N4Cc6ccccc6C[C@H]4CN4CCOCC4)OCO5)n4c3COCC4)c3ccc(O)cc3)ccc21` [Example 80, N-(4-Hydroxyphenyl)-N-(1-methyl-1H-indol-5-yl)-6-{6-[((3S)-3-(4-morpholinylmethyl)-3,4-dihydro-2(1H)-isoquinolinyl)carbonyl]-1,3-benzodioxol-5-yl}-3,4-dihydro-1H-pyrrolo[2,1-c][1,4]oxazine-8-carboxamide], the IC50 on Bcl-2 protein was found to be 18 nM; in experiment [1], 18.8 nM.

Turning to `CN1CCc2cc(N(C(=O)c3cc(-c4cc5c(cc4C(=O)N4Cc6ccccc6C[C@H]4CN4CCOCC4)OCO5)n4c3COCC4)c3ccc(O)cc3)ccc21` [Example 81, N-(4-Hydroxyphenyl)-N-(1-methyl-2,3-dihydro-1H-indol-5-yl)-6-{6-[((3S)-3-(4-morpholinylmethyl)-3,4-dihydro-2(1H)-isoquinolinyl)carbonyl]-1,3-benzodioxol-5-yl}-3,4-dihydro-1H-pyrrolo[2,1-c][1,4]oxazine-8-carboxamide hydrochloride], the IC50 amounted to 28 nM on Bcl-2 protein and 39.3 nM in experiment [1].

As to `Cc1ccc(N(C(=O)c2cc(-c3cc(Cl)ccc3C(=O)N3Cc4ccccc4C[C@H]3CN3CCOCC3)n3c2COCC3)c2ccc(O)cc2)cc1F` [Example 82, 6-{5-Chloro-2-[((3S)-3-(4-morpholinylmethyl)-3,4-dihydro-2(1H)-isoquinolinyl)carbonyl]phenyl}-N-(3-fluoro-4-methylphenyl)-N-(4-hydroxyphenyl)-3,4-dihydro-1H-pyrrolo[2,1-c][1,4]oxazine-8-carboxamide hydrochloride], the IC50 was found to be 33 nM at Bcl-2 protein and 21.9 nM in experiment [1].

`O=C(c1cc(-c2cc(Cl)ccc2C(=O)N2Cc3ccccc3C[C@H]2CN2CCOCC2)n2c1CCCC2)N(c1ccc(O)cc1)c1ccsc1` [Example 85, 3-{5-Chloro-2-[((3S)-3-(4-morpholinylmethyl)-3,4-dihydro-2(1H)-isoquinolinyl)carbonyl]phenyl}-N-(4-hydroxyphenyl)-N-(3-thienyl)-5,6,7,8-tetrahydro-1-indolizine carboxamide hydrochloride]: the values for the IC50 (on Bcl-2 protein; in experiment [1]) were 41 nM and 246 nM, respectively.

`Cn1ccc2cc(N(C(=O)c3cc(-c4cc(Cl)ccc4C(=O)N4Cc5ccccc5C[C@H]4CN4CCOCC4)n4c3COCC4)c3ccc(O)cc3)ccc21` [Example 86, 6-{5-Chloro-2-[((3S)-3-(4-morpholinylmethyl)-3,4-dihydro-2(1H)-isoquinolinyl)carbonyl]phenyl}-N-(4-hydroxyphenyl)-N-(1-methyl-1H-indol-5-yl)-3,4-dihydro-1H-pyrrolo[2,1-c][1,4]oxazine-8-carboxamide hydrochloride]: the IC50 on Bcl-2 protein stood at 22 nM; in experiment [1] it was 29.5 nM.

Take `Cc1ccc(N(C(=O)c2cc(-c3cc(F)ccc3C(=O)N3Cc4ccccc4C[C@H]3CN3CCOCC3)n3c2CCCC3)c2ccc(O)cc2)cc1F` [Example 91, N-(3-Fluoro-4-methylphenyl)-3-(5-fluoro-2-{[(3S)-3-(morpholin-4-ylmethyl)-3,4-dihydroisoquinolin-2(1H)-yl]carbonyl}phenyl)-N-(4-hydroxyphenyl)-5,6,7,8-tetrahydroindolizine-1-carboxamide hydrochloride]: the values for the IC50 (on Bcl-2 protein; in experiment [1]) were 8 nM and 65.5 nM, respectively.

Take `Cc1ccc(N(C(=O)c2cc(-c3cc4c(cc3C(=O)N3Cc5ccccc5C[C@H]3CN3CCOCC3)OCO4)n3c2COCC3)c2ccc(O)cc2)cc1F` [Example 92, N-(3-Fluoro-4-methylphenyl)-N-(4-hydroxyphenyl)-6-(6-{[(3S)-3-(morpholin-4-ylmethyl)-3,4-dihydroisoquinolin-2(1H)-yl]carbonyl}-1,3-benzodioxol-5-yl)-3,4-dihydro-1H-pyrrolo[2,1-c][1,4]oxazine-8-carboxamide hydrochloride]: the IC50 at Bcl-2 protein came out at 5 nM; in experiment [1], 40.2 nM.

Consider `Cn1ncc2cc(N(C(=O)c3cc(-c4cc5c(cc4C(=O)N4Cc6ccccc6C[C@H]4CN4CCOCC4)OCO5)n4c3CCCC4)c3ccc(O)cc3)ccc21` [Example 94, N-(4-Hydroxyphenyl)-N-(1-methyl-1H-indazol-5-yl)-3-(6-{[(3S)-3-(morpholin-4-ylmethyl)-3,4-dihydroisoquinolin-2(1H)-yl]carbonyl}-1,3-benzodioxol-5-yl)-5,6,7,8-tetrahydroindolizine-1-carboxamide hydrochloride], for which the IC50 was 3 nM at Bcl-2 protein and 8.16 nM in experiment [1].

`Cc1ccc(C(=O)N2Cc3ccccc3C[C@H]2CN2CCOCC2)c(-c2cc(C(=O)N(c3ccc(O)cc3)c3ccc4c(ccn4C)c3)c3n2CCCC3)c1` [Example 95, N-(4-Hydroxyphenyl)-N-(1-methyl-1H-indol-5-yl)-3-(5-methyl-2-{[(3S)-3-(morpholin-4-ylmethyl)-3,4-dihydroisoquinolin-2(1H)-yl]carbonyl}phenyl)-5,6,7,8-tetrahydroindolizine-1-carboxamide hydrochloride]: the IC50 at Bcl-2 protein is 6 nM; in experiment [1], 13.5 nM.

For the compound `Cn1ccc2cc(N(C(=O)c3cc(-c4cc5c(cc4C(=O)N4Cc6ccccc6C[C@H]4CN4CCOCC4)OCO5)n4c3CCC4)c3ccc(O)cc3)ccc21` [Example 96, N-(4-Hydroxyphenyl)-N-(1-methyl-1H-indol-5-yl)-5-(6-{[(3S)-3-(morpholin-4-ylmethyl)-3,4-dihydroisoquinolin-2(1H)-yl]carbonyl}-1,3-benzodioxol-5-yl)-2,3-dihydro-1H-pyrrolizine-7-carboxamide hydrochloride], the IC50 at Bcl-2 protein is 11 nM; in experiment [1], 58.8 nM.

In the case of `Cc1ccc(N(C(=O)c2cc(-c3cc(Cl)ccc3C(=O)N3Cc4ccccc4C[C@H]3CN3CCOCC3)n3c2CCCC3)c2ccc(O)cc2)cc1Cl` [Example 97, N-(3-Chloro-4-methylphenyl)-3-(5-chloro-2-{[(3S)-3-(morpholin-4-ylmethyl)-3,4-dihydroisoquinolin-2(1H)-yl]carbonyl}phenyl)-N-(4-hydroxyphenyl)-5,6,7,8-tetrahydroindolizine-1-carboxamide hydrochloride], the IC50 on Bcl-2 protein is 20 nM; in experiment [1], 45.4 nM.

As to `Cc1ccc(N(C(=O)c2cc(-c3cc(F)ccc3C(=O)N3Cc4ccccc4C[C@H]3CN3CCOCC3)n3c2COCC3)c2ccc(O)cc2)cc1F` [Example 98, N-(3-Fluoro-4-methylphenyl)-6-(5-fluoro-2-{[(3S)-3-(morpholin-4-ylmethyl)-3,4-dihydroisoquinolin-2(1H)-yl]carbonyl}phenyl)-N-(4-hydroxyphenyl)-3,4-dihydro-1H-pyrrolo[2,1-c][1,4]oxazine-8-carboxamide hydrochloride], the values for the IC50 (on Bcl-2 protein; in experiment [1]) were 12 nM and 73.5 nM, respectively.

Consider `O=C(c1cc(-c2cc(F)ccc2C(=O)N2Cc3ccccc3C[C@H]2CN2CCOCC2)n2c1COCC2)N(c1ccc(O)cc1)c1ccc(F)cc1` [Example 99, 6-(5-Fluoro-2-{[(3S)-3-(morpholin-4-ylmethyl)-3,4-dihydroisoquinolin-2(1H)-yl]carbonyl}phenyl)-N-(4-fluorophenyl)-N-(4-hydroxyphenyl)-3,4-dihydro-1H-pyrrolo[2,1-c][1,4]oxazine-8-carboxamide hydrochloride], for which the IC50 at Bcl-2 protein came out at 25 nM; in experiment [1], 213 nM.

Regarding `O=C(c1cc(-c2cc(F)ccc2C(=O)N2Cc3ccccc3C[C@H]2CN2CCOCC2)n2c1CC(O)CC2)N(c1ccccc1)c1ccc(O)cc1` (stereo partly drawn) [Example 100, 3-(5-Fluoro-2-{[(3S)-3-(morpholin-4-ylmethyl)-3,4-dihydroisoquinolin-2(1H)-yl]carbonyl}phenyl)-7-hydroxy-N-(4-hydroxyphenyl)-N-phenyl-5,6,7,8-tetrahydroindolizine-1-carboxamide hydrochloride], the IC50 on Bcl-2 protein worked out at 22 nM; in experiment [1] it was 856 nM.

Take `Cn1ncc2cc(N(C(=O)c3cc(-c4cc(Cl)ccc4C(=O)N4Cc5ccccc5C[C@H]4CN4CCOCC4)n4c3COCC4)c3ccc(O)cc3)ccc21` [Example 101, 6-(5-Chloro-2-{[(3S)-3-(morpholin-4-ylmethyl)-3,4-dihydroisoquinolin-2(1H)-yl]carbonyl}phenyl)-N-(4-hydroxyphenyl)-N-(1-methyl-1H-indazol-5-yl)-3,4-dihydro-1H-pyrrolo[2,1-c][1,4]oxazine-8-carboxamide hydrochloride]: the figures for the IC50 (on Bcl-2 protein; in experiment [1]) were 5 nM and 22.1 nM, respectively.

Consider `Cn1ccc2cc(N(C(=O)c3cc(-c4cc(Cl)ccc4C(=O)N4Cc5ccccc5C[C@H]4CN4CCOCC4)n4c3CCCC4)c3ccc(O)cc3)cnc21` [Example 103, 3-(5-Chloro-2-{[(3S)-3-(morpholin-4-ylmethyl)-3,4-dihydroisoquinolin-2(1H)-yl]carbonyl}phenyl)-N-(4-hydroxyphenyl)-N-(1-methyl-1H-pyrrolo[2,3-b]-pyridin-5-yl)-5,6,7,8-tetrahydroindolizine-1-carboxamide], for which the IC50 on Bcl-2 protein worked out at 6 nM; in experiment [1] it was 16.8 nM.

Take `COc1ccc(C(=O)N2Cc3ccccc3C[C@H]2CN2CCOCC2)c(-c2cc(C(=O)N(c3ccc(O)cc3)c3ccc4c(cnn4C)c3)c3n2CCCC3)c1` [Example 104, N-(4-Hydroxyphenyl)-3-(5-methoxy-2-{[(3S)-3-(morpholin-4-ylmethyl)-3,4-dihydroisoquinolin-2(1H)-yl]carbonyl}phenyl)-N-(1-methyl-1H-indazol-5-yl)-5,6,7,8-tetrahydroindolizine-1-carboxamide hydrochloride]: the IC50 amounted to 7 nM on Bcl-2 protein and 21.6 nM in experiment [1].

Turning to `COCCN1CCN(C[C@@H]2Cc3ccccc3CN2C(=O)c2cc3c(cc2-c2cc(C(=O)N(c4ccccc4)c4ccc(O)cc4)c4n2CCCC4)OCO3)CC1` [Example 105, N-(4-Hydroxyphenyl)-3-(6-{[(3S)-3-{[4-(2-methoxyethyl)piperazin-1-yl]methyl}-3,4-dihydroisoquinolin-2(1H)-yl]carbonyl}-1,3-benzodioxol-5-yl)-N-phenyl-5,6,7,8-tetrahydroindolizine-1-carboxamide bis(hydrochloride)], the IC50 at Bcl-2 protein turned out to be 10 nM; in experiment [1], 28.9 nM.

(Values after patent US9120791B2, “Indolizine compounds, a process for their preparation and pharmaceutical compositions containing them” (LES LABORATOIRES SERVIER, priority 2012, dated 2015).)
